Results on four molecules are retold here after patent US20090099197A1 (priority 2005, published 2009).

pIC50: −log10 of the molar value. “Also recorded” adds a separate entry of the source. Where two headings read alike, the source gives them in different places.

One series relates to wild-type BCR-ABL. Conditions: cited from earlier work.
Series [1] deals with imatinib-resistant BCR-ABL mutants. Conditions: cited from earlier work.
Series [2] deals with K562/ADM (K562 cells over-expressing MDR-1). The experiment in a line: In vitro proliferation/cytotoxicity assay, MDR-1 overexpressing K562/ADM cells. Format: cell-based, human. The conditions noted are these: for pIC50: Homo sapiens. How it is done:
Two cell lines were used: K562 (erythromyeloblastoid CML) and K562/ADM (K562 cells over-expressing MDR-1).
Experiments were performed as described in Example 1 except that K562/ADM cells were used.

Series [3] concerns K562 (erythromyeloblastoid CML) cells. The experiment in a line: cells. Conditions: Homo sapiens, K562, 72 h.
Series [4] has as its system K562/STI-571/R tumor xenografts. The experiment in a line: Tumor response in imatinib-resistant K562/STI-571/R xenograft model. Format: in vivo, SCID mice.
The subject of series [5] is K562/ADM tumor xenografts. Description: Tumor response in SC K562/ADM leukemia xenograft model. Conditions: QDx14. The class given is in vivo, mice. As for the experimental part:
(B) Activity versus K562/ADM tumor xenografts. Mice were implanted subcutaneously (SC) on Day 0 with K562/ADM. On Day 18 when tumors were at a size range of 100-200 mg, treatment began. […] Experiments were performed as described in Example 3.
Tumors implanted in mouse xenograft models were allowed to grow to a pre-determined size of 100-300 mg (tumors outside the range were excluded) and animals were evenly distributed to treatment and control groups. Treated animals were checked daily for treatment-related toxicity/mortality. […] The difference in body weight (Wt2−Wt1) provides a measure of treatment-related toxicity. Tumor weights (mg) were estimated from the formula: tumor weight=(length×width^2)/2.
Log cell kill was also used as a measure of anti-tumor activity according to the following equation: log cell kill=T−C/(3.32×TVDT). In this equation: T=mean tumor weight at the end of treatment for the treated group; C=mean tumor weight at the end of treatment for the control group; and TVDT=median time (days) for control tumor weight to reach target size−median time (days) for control tumor weight to reach half the target size.
A maximum tolerated dose (MTD), frequently equivalent to the optimal dose, was defined as a dose immediately below that causing unacceptable toxicity (i.e. more than one death) or, in the absence of any deaths, when accompanied by >20% loss of body weight.

The subject of series [6] is K562 intracranial CML tumor model. Description: Survival of mice bearing intracranial K562 CML. Format: in vivo. Conditions: BIDx10. How it is done:
Extramedullary complications, particular in the CNS, are known risks of Ph+ALL or Ph+CML in lymphoid blast crisis. […] Both drugs were administered orally to mice inoculated intracranially (IC) with K562 cells using a BID×10 treatment schedule.

The nature of a further series: in vivo. Conditions: SCID, mouse. As for the experimental part:
Concentrations and dosing frequency are as specified in FIG. 4A. […] Experiments were performed as described in Example 4.

A further series deals with intracranial K562 cells. Description: Bioluminescence imaging of intracranially inoculated K562 cells. The class given is in vivo, SCID mice. The conditions noted are these: 15 mg/kg, 2qdx14, M-F, po. As for the experimental part:
Experiments were performed as described in Example 4.

Series [7] has as its system K562 (erythromyeloblastoid CML) cells.
The test system of series [8] is K562-R (K562/STI-571/R) imatinib resistant cells.
Series [9] shares this test system. Description: cells. Conditions: Homo sapiens, K-562R.
The mark [10] stands for this setting: K562 cells, 72 hours incubation.

The pIC50 is the negative decadic logarithm of the IC50, by convention in mol/L.

As for `Cc1cn(-c2cc(NC(=O)c3ccc(C)c(Nc4nccc(-c5cccnc5)n4)c3)cc(C(F)(F)F)c2)cn1` [AMN107], in the series with wild-type BCR-ABL, the pIC50 was […]. Further, in [1], the “imatinib-resistant BCR-ABL mutants/mutations against which active” value was 32/33.
Consider `COc1cccc2c1C(=O)c1c(O)c3c(c(O)c1C2=O)C[C@@](O)(C(=O)CO)C[C@@H]3O[C@H]1C[C@H](N)[C@H](O)[C@H](C)O1` [adriamycin], for which the pIC50 in series [2] (K562/ADM cells, read-out: IC50) was 5.90; in series [3] it was 7.68. For the same molecule, the “fold resistance (IC50 K562/ADM versus K562)” value in series [2] (K562/ADM versus parent K562 cells) is 60 fold.
Regarding `Cc1nc(Nc2ncc(C(=O)Nc3c(C)cccc3Cl)s2)cc(N2CCN(CCO)CC2)n1` [dasatinib, N-(2-chloro-6-methylphenyl)-2-[[6-[4-(2-hydroxyethyl)-1-piperazinyl]-2-methyl-4-pyrimidinyl]amino]-5-thiazolecarboxamide], the negative-log IC50 (pIC50) in series [2] (K562, K562/ADM cells) was about 8.52; in series [7] (setting [10]) it was 9.30; in series [3] (setting [10]) it was 9.15; in [9], 8.36. The effect on tumor entry in series [4] (dasatinib 5 mg/kg (lowest dose)) is reported as “tumor regressed initially”. In addition, the “effect on tumor size” value in series [4] (dasatinib, all doses except the lowest tested (5 mg/kg)) is on record as “substantial reductions in tumor size”. Besides, the results for the anti-leukemic activity result in [5] (5 mg/kg PO) and in series [5] (30 mg/kg PO) were “inactive” and “completely eliminated tumors”, respectively. This molecule displayed a growth delay in series [5] (15 mg/kg PO, P=0.0009) of 16.7 days. Moreover, the “increase in lifespan (ILS)” value in series [6] (5 mg/kg/adm oral) is reported as 268%; in series [6] (15 mg/kg/adm oral) it was 450%. In addition, the Kp in the series “in vivo” fell in the range of 0.05 to 0.1. Besides, in the series on intracranial K562 cells, the “bioluminescence of intracranial K562 cells after treatment” value is recorded as “virtually no bioluminescence; also recorded: marked reduction of bioluminescence”. Also, in series [7] (dasatinib versus imatinib or AMN107, FIG. 1A), the “sensitivity of K562 cells (percent growth inhibition), comparison” value is recorded as “significantly more sensitive to dasatinib than either imatinib or AMN107”. Also, the “resistance factor (IC50 K562-R versus K562)” value in [8] is recorded as 6 fold.
`Cc1ccc(NC(=O)c2ccc(CN3CCN(C)CC3)cc2)cc1Nc1nccc(-c2cccnc2)n1` [imatinib, reference compound]: in [4] (imatinib 75 and 150 mg/kg three times daily), the effect on tumors entry is “little or no impact”.
